# Test results from the kinase profiling compilation of Christmann-Franck et al. (2016).
# Key:
# Experiment in all cases: KINOMEscan competition binding
# Settings in all cases: compound 10.0 µM
# [1] = target: HUNK (human) (UniProt P57058)
# [2] = target: SIK2 (human) (UniProt Q9H0K1)
# [3] = target: STK32A (human) (UniProt Q8WU08)
# [4] = target: PRKD1 (human) (UniProt Q15139)
# [5] = target: CDKL1 (human) (UniProt Q00532)
# [6] = target: ERBB3 (human) (UniProt P21860)
# [7] = target: NEK11 (human) (UniProt Q8NG66)
# [8] = target: MAPK15 (human) (UniProt Q8TD08)
# [9] = target: PLK2 (human) (UniProt Q9NYY3)
# [10] = target: IKBKB (human) (UniProt O14920)
# [11] = target: IRAK4 (human) (UniProt Q9NWZ3)
# [12] = target: LTK (human) (UniProt P29376)
# [13] = target: MUSK (human) (UniProt O15146)
# [14] = target: PLK1 (human) (UniProt P53350)
# [15] = target: TYRO3 (human) (UniProt Q06418)
# [16] = target: ACVR1 (human) (UniProt Q04771)
# [17] = system: FLT3 (human), P36888 [D835H]
# [18] = target: PRKG1 (human) (UniProt Q13976)
# [19] = target: ZAP70 (human) (UniProt P43403)
# [20] = target: STK38L (human) (UniProt Q9Y2H1)
# [21] = target: EPHA4 (human) (UniProt P54764)
# [22] = target: NLK (human) (UniProt Q9UBE8)
# [23] = target: MAP2K3 (human) (UniProt P46734)
# [24] = target: EPHB2 (human) (UniProt P29323)
# [25] = target: CHEK2 (human) (UniProt O96017)
# [26] = target: ABL2 (human) (UniProt P42684)
# [27] = target: DDR1 (human) (UniProt Q08345)
# [28] = system: EGFR (human), P00533 [752-759 del]
# [29] = target: ACVR2A (human) (UniProt P27037)
# [30] = system: RET (human), P07949 [V804M]
# [31] = target: TYK2 JH1 catalytic (human) (UniProt P29597)
# [32] = target: STK24 (human) (UniProt Q9Y6E0)
# [33] = target: ADCK4 (human) (UniProt Q96D53)
# [34] = target: BMPR2 (human) (UniProt Q13873)
# [35] = target: STK10 (human) (UniProt O94804)
# [36] = target: AURKB (human) (UniProt Q96GD4)
# [37] = target: CSNK1G3 (human) (UniProt Q9Y6M4)
# [38] = target: MAST1 (human) (UniProt Q9Y2H9)
# [39] = target: EPHB3 (human) (UniProt P54753)
# [40] = target: IKBKE (human) (UniProt Q14164)
# [41] = target: NEK4 (human) (UniProt P51957)
# [42] = target: MAP4K5 (human) (UniProt Q9Y4K4)
# Chain of MAP4K5 (human) (Q9Y4K4 whole entry, looked up): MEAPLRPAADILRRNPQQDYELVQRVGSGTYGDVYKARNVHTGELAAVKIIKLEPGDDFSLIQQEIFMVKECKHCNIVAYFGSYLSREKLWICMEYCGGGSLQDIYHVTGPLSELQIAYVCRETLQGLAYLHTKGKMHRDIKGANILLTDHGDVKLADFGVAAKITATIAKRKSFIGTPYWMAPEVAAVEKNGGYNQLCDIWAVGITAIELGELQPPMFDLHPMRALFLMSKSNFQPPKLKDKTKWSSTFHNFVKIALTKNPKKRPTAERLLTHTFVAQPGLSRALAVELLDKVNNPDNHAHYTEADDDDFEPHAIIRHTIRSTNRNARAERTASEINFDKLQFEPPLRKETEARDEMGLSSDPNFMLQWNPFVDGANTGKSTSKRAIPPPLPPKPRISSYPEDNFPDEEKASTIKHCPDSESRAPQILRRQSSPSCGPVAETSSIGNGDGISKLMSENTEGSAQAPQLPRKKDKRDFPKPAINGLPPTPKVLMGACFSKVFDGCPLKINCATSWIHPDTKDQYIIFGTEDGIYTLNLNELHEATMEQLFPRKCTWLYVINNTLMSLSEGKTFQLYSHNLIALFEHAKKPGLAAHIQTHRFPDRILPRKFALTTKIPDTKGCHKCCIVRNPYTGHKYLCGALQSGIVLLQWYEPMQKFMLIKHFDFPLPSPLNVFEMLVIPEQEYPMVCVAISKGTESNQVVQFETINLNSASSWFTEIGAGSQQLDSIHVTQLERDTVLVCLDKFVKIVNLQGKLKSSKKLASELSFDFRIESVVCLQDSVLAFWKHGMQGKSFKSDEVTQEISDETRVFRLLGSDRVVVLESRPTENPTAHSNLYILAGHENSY
# Chain of NEK11 (human) (Q8NG66 whole entry, looked up): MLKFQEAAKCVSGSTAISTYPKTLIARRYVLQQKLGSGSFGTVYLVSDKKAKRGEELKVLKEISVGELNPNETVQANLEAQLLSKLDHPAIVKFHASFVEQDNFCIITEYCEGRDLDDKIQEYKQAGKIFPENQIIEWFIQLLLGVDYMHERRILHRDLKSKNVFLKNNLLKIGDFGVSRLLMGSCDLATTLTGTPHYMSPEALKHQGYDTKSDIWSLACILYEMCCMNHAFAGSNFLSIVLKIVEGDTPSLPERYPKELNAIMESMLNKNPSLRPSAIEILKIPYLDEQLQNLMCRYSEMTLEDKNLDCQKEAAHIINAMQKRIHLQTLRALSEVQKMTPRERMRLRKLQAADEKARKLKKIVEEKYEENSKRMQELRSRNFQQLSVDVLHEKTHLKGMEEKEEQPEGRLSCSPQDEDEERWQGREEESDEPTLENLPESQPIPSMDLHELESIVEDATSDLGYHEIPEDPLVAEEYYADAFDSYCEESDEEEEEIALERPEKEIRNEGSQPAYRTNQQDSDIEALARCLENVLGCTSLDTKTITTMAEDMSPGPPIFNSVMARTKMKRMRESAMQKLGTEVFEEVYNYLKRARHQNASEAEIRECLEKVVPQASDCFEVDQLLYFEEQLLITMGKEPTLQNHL
# Chain of CHEK2 (human) (O96017 whole entry, looked up): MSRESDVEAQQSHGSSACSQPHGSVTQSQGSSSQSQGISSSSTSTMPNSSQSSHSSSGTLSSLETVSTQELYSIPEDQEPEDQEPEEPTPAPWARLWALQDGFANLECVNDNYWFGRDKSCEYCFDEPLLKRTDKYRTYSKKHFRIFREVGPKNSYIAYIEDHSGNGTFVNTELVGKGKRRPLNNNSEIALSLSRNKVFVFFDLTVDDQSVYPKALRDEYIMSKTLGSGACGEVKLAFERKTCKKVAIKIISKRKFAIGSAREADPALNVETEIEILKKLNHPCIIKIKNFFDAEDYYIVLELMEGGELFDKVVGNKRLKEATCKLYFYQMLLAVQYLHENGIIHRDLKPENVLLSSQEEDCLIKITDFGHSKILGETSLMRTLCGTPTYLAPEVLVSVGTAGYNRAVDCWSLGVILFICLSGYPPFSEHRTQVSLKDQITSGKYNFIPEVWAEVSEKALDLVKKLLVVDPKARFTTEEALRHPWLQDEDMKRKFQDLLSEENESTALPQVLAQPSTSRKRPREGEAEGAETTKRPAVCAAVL
# Chain of ZAP70 (human) (P43403 whole entry, looked up): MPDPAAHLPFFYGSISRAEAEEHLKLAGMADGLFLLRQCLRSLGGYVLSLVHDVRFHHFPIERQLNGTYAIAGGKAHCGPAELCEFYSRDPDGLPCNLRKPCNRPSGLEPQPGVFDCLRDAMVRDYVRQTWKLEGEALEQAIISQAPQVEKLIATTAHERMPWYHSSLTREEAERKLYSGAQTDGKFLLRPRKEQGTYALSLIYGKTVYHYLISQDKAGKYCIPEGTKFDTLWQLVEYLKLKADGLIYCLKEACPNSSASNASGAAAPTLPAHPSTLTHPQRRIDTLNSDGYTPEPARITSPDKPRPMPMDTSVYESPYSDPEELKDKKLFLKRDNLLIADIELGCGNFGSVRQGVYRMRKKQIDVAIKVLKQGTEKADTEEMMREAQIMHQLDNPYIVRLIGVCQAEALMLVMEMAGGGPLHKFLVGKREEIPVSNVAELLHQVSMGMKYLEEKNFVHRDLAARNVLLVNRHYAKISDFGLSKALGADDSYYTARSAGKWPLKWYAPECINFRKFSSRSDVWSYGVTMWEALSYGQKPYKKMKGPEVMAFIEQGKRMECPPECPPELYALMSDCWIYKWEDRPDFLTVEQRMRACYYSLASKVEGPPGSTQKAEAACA
# Chain of LTK (human) (P29376 whole entry, looked up): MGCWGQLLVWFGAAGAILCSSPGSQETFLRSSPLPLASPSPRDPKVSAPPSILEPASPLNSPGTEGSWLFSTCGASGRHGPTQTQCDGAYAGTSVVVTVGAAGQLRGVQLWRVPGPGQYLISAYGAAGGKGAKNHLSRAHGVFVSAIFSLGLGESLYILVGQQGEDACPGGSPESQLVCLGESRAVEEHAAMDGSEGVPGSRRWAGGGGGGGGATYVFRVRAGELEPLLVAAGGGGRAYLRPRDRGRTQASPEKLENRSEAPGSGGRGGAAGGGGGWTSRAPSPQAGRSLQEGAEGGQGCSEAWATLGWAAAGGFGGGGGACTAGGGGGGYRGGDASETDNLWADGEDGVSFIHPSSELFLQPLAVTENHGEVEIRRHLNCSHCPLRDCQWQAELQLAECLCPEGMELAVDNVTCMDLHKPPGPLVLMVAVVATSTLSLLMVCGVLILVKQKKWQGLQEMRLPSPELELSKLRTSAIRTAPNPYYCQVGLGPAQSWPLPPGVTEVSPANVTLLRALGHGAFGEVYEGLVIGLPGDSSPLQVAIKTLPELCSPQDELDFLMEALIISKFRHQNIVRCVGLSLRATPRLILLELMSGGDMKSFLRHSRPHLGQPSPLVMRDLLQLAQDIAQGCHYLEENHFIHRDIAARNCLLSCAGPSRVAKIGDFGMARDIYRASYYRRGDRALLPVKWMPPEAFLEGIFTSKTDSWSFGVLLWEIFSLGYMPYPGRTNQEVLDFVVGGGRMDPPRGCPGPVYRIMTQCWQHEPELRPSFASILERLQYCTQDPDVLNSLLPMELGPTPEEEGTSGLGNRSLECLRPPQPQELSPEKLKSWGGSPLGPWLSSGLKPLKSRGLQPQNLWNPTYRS
# Chain of CSNK1G3 (human) (Q9Y6M4 whole entry, looked up): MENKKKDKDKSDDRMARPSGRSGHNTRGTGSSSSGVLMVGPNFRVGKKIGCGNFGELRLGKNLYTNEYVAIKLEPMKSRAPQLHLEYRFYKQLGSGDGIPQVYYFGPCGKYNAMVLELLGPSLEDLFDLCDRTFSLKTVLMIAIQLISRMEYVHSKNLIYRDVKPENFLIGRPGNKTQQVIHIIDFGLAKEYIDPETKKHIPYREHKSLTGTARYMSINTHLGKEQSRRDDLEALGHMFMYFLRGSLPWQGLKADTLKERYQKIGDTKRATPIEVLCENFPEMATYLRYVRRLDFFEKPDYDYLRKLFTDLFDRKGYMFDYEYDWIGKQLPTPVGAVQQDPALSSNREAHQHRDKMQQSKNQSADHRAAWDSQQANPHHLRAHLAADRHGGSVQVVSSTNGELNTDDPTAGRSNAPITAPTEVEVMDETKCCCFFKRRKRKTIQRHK
# Chain of ACVR1 (human) (Q04771 whole entry, looked up): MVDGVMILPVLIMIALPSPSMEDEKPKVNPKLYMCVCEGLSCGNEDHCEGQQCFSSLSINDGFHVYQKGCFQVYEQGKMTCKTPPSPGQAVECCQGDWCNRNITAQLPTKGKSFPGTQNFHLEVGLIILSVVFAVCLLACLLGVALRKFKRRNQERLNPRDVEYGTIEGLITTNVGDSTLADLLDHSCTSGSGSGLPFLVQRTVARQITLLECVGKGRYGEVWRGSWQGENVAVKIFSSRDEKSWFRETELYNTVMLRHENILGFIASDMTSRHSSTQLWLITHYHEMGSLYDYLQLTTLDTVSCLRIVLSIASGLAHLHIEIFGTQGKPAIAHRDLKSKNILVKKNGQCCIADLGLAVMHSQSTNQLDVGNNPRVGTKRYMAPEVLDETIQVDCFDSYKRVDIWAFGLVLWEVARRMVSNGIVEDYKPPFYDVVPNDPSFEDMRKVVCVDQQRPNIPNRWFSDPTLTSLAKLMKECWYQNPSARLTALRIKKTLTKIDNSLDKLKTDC
# Chain of CDKL1 (human) (Q00532 whole entry, looked up): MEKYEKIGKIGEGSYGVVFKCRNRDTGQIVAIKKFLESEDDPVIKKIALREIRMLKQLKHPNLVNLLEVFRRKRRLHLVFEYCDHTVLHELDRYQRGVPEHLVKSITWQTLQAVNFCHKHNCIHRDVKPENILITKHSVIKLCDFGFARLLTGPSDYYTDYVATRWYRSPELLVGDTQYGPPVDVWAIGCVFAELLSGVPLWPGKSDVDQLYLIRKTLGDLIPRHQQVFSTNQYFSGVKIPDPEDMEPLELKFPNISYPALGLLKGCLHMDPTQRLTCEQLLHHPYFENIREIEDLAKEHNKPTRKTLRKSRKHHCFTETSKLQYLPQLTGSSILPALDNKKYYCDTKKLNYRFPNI
compound,measurement,setting,value
Cc1cc([C@@H](C)Nc2ccccc2C(=O)O)c2nc(N3CCOCC3)cc(=O)n2c1,"kinase still bound, per cent of control",[1],94%
same,"kinase still bound, per cent of control",[2],90%
same,"kinase still bound, per cent of control",[3],100%
same,"kinase still bound, per cent of control",[4],100%
same,"kinase still bound, per cent of control",[5],100%
same,"kinase still bound, per cent of control",[6],100%
same,"kinase still bound, per cent of control",[7],68%
same,"kinase still bound, per cent of control",[8],100%
same,"kinase still bound, per cent of control",[9],100%
same,"kinase still bound, per cent of control",[10],95%
same,"kinase still bound, per cent of control",[11],100%
same,"kinase still bound, per cent of control",[12],61%
same,"kinase still bound, per cent of control",[13],100%
same,"kinase still bound, per cent of control",[14],55%
same,"kinase still bound, per cent of control",[15],100%
same,"kinase still bound, per cent of control",[16],100%
same,"kinase still bound, per cent of control",[17],32%
same,"kinase still bound, per cent of control",[18],79%
same,"kinase still bound, per cent of control",[19],72%
same,"kinase still bound, per cent of control",[20],92%
same,"kinase still bound, per cent of control",[21],91%
same,"kinase still bound, per cent of control",[22],100%
same,"kinase still bound, per cent of control",[23],99%
same,"kinase still bound, per cent of control",[24],100%
same,"kinase still bound, per cent of control",[25],100%
same,"kinase still bound, per cent of control",[26],100%
same,"kinase still bound, per cent of control",[27],81%
same,"kinase still bound, per cent of control",[28],100%
same,"kinase still bound, per cent of control",[29],95%
same,"kinase still bound, per cent of control",[30],99%
same,"kinase still bound, per cent of control",[31],100%
same,"kinase still bound, per cent of control",[32],85%
same,"kinase still bound, per cent of control",[33],95%
same,"kinase still bound, per cent of control",[34],84%
same,"kinase still bound, per cent of control",[35],71%
same,"kinase still bound, per cent of control",[36],76%
same,"kinase still bound, per cent of control",[37],95%
same,"kinase still bound, per cent of control",[38],54%
same,"kinase still bound, per cent of control",[39],100%
same,"kinase still bound, per cent of control",[40],100%
same,"kinase still bound, per cent of control",[41],94%
same,"kinase still bound, per cent of control",[42],92%
